Data as given in the supplement of paper PMC11061612.

Columns and labels:
Test in all cases: combination Emax (second highest fraction inhibited in the dose matrix, 72 h); higher = more inhibition; extreme values may be limits of the assay
[1] = test system: NAMALWA (Burkitt's Lymphoma)
Outline: (§1)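 After 24 hours at 37°C and 5% CO2 in 1536-well plates, cells in DMEM/F12 or RPMI plus 10% FBS received two-drug dose matrices for 72 hours. Viability came from CellTiter-Glo 2.0 luminescence and was scaled as inhibition, anchored at 0 by vehicle wells and at 1 by blank wells. Combination Emax is taken as the second-highest inhibition in the matrix, and Bliss excess as the observed combination effect less EA + EB − EA·EB, with EA and EB the single-agent effects.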

[2] = test system: SCC-4 (Oral Cavity Carcinoma)
Outline: as §1

[3] = test system: OAW-28 (Ovarian Carcinoma)
Outline: as §1

NCI-H226 (Mesothelioma) = test system: NCI-H226 (Mesothelioma)
Outline: as §1

SK-N-SH (Neuroblastoma) = test system: SK-N-SH (Neuroblastoma)
Outline: as §1

[4] = test system: T84 (Colorectal Carcinoma)
Outline: as §1

[5] = test system: NCI-H1963 (Small Cell Lung Carcinoma)
Outline: as §1

[6] = test system: DBTRG-05MG (Glioblastoma)
Outline: as §1

[7] = test system: MS-1 (Small Cell Lung Carcinoma)
Outline: as §1

[8] = test system: TUR (Acute Myeloid Leukemia)
Outline: as §1

[9] = test system: P30-OHK (B-Lymphoblastic Leukemia)
Outline: as §1

[10] = test system: PA-TU-8988T (Pancreatic Carcinoma)
Outline: as §1

[11] = test system: C-33-A (Cervical Carcinoma)
Outline: as §1

[12] = test system: ZR-75-30 (Breast Carcinoma)
Outline: as §1

[13] = test system: CPC-N (Small Cell Lung Carcinoma)
Outline: as §1

[14] = test system: NMC-G1 (Low Grade Glioma)
Outline: as §1

[15] = test system: SAT (Head and Neck Carcinoma)
Outline: as §1

WM35 (Melanoma) = test system: WM35 (Melanoma)
Outline: as §1

[16] = test system: KP-4 (Pancreatic Carcinoma)
Outline: as §1

[17] = test system: Raji (Burkitt's Lymphoma)
Outline: as §1

SMILES | combination Emax [1] | combination Emax [2] | combination Emax [3] | combination Emax (NCI-H226 (Mesothelioma)) | combination Emax (SK-N-SH (Neuroblastoma)) | combination Emax [4] | combination Emax [5] | combination Emax [6] | combination Emax [7] | combination Emax [8] | combination Emax [9] | combination Emax [10] | combination Emax [11] | combination Emax [12] | combination Emax [13] | combination Emax [14] | combination Emax [15] | combination Emax (WM35 (Melanoma)) | combination Emax [16] | combination Emax [17]
CCc1c2c(nc3ccc(O)cc13)-c1cc3c(c(=O)n1C2)COC(=O)[C@]3(O)CC [SN-38] + CN(C)CCCOc1ccc(-c2ccc3ncc4c(c3c2)n(C2CCOCC2)c(=O)n4C)cn1 [AZD0156] (first compound max 0.3 µM, 7x7, partner max 1 µM) | 0.989 | 0.839 | 0.791 | 0.337 | 0.909 | 0.644 | 0.822 | 0.412 | 0.63 | 0.982 | 0.973 | 0.704 | 0.802 | 0.0683 | 0.549 | 0.24 | 0.344 | 0.509 | 0.817 | 0.958
CC(=O)Nc1cccc(-n2c(=O)n(C3CC3)c(=O)c3c(Nc4ccc(I)cc4F)n(C)c(=O)c(C)c32)c1 [Trametinib] + Cc1nc(-c2cn3c(n2)-c2ccc(-c4cnn(C(C)(C)C(N)=O)c4)cc2OCC3)n(C(C)C)n1 [Taselisib] (first compound max 1 µM, 7x7, partner max 10 µM) | 0.589 | 0.992 | 0.589 | 0.327 | 0.827 | 0.96 | 0.435 | 0.69 | 0.513 | 0.992 | 0.49 | 0.762 | 0.669 | 0.667 | 0.362 | 0.488 | 0.941 | 0.97 | 0.694 | 0.144
CC1(C)CCC(CN2CCN(c3ccc(C(=O)NS(=O)(=O)c4ccc(NCC5CCOCC5)c([N+](=O)[O-])c4)c(Oc4cnc5[nH]ccc5c4)c3)CC2)=C(c2ccc(Cl)cc2)C1 [Venetoclax] + C1CN(CCC1(C(=O)N[C@@H](CCO)C2=CC=C(C=C2)Cl)N)C3=NC=NC4=C3C=CN4 [Capivasertib] (first compound max 1 µM, 7x7, partner max 3 µM) | 0.534 | 0.23 | 0.134 | 0.241 | 0.394 | 0.168 | 0.775 | 0.209 | 0.36 | 0.599 | 0.678 | 0.219 | 0.547 | 0.312 | 0.84 | 0.111 | 0.377 | 0.178 | 0.0982 | 0.132
CC1(C)CCC(CN2CCN(c3ccc(C(=O)NS(=O)(=O)c4ccc(NCC5CCOCC5)c([N+](=O)[O-])c4)c(Oc4cnc5[nH]ccc5c4)c3)CC2)=C(c2ccc(Cl)cc2)C1 [Venetoclax] + C=CCn1c(=O)c2cnc(Nc3ccc(N4CCN(C)CC4)cc3)nc2n1-c1cccc(C(C)(C)O)n1 [AZD1775] (first compound max 1 µM, partner max 1 µM) | 0.975 | 0.637 | 0.233 | 0.268 | 0.889 | 0.577 | 0.973 | 0.241 | 0.939 | 0.911 | 0.992 | 0.728 | 0.961 | 0.159 | 0.964 | 0.394 | 0.545 | 0.165 | 0.56 | 0.725
CC1(C)CCC(CN2CCN(c3ccc(C(=O)NS(=O)(=O)c4ccc(NCC5CCOCC5)c([N+](=O)[O-])c4)c(Oc4cnc5[nH]ccc5c4)c3)CC2)=C(c2ccc(Cl)cc2)C1 [Venetoclax] + CCN(CCO)CCCOc1ccc2c(Nc3cc(CC(=O)Nc4cccc(F)c4)[nH]n3)ncnc2c1 [AZD2811] (first compound max 1 µM, 7x7, partner max 1 µM) | 0.56 | 0.429 | 0.314 | 0.158 | 0.73 | 0.127 | 0.893 | 0.228 | 0.34 | 0.258 | 1 | 0.0634 | 0.312 | 0.11 | 0.942 | 0.229 | 0.187 | 0.152 | 0.322 | 0.122
CC1(C)CCC(CN2CCN(c3ccc(C(=O)NS(=O)(=O)c4ccc(NCC5CCOCC5)c([N+](=O)[O-])c4)c(Oc4cnc5[nH]ccc5c4)c3)CC2)=C(c2ccc(Cl)cc2)C1 [Venetoclax] + CN(C)CCCOc1ccc(-c2ccc3ncc4c(c3c2)n(C2CCOCC2)c(=O)n4C)cn1 [AZD0156] (first compound max 1 µM, 7x7, partner max 1 µM) | 0.613 | 0.358 | 0.116 | 0.212 | 0.394 | 0.19 | 0.565 | 0.174 | 0.445 | 0.0455 | 0.458 | 0.179 | 0.494 | 0.105 | 0.78 | 0.192 | 0.204 | 0.135 | 0.21 | 0.244
